From patent US6630464B1, “Cyclin dependent kinase (CDK)4 inhibitors and their use for treating cancer” (The United States of America as represented by the …, priority 1997, dated 2003)
Like-named read-outs stand apart in the source and are kept apart here. Blank lines part the entries; values can stand above or below the molecule they belong to.

Key:
CDK4:cyclin D1 = CDK4:cyclin D1 (Homo sapiens, UniProt P11802); assay: In vitro kinase assay, CDK4:cyclin D1, GST-Rb substrate; details: for CDK4 kinase inhibitory potency compared with parent compounds: parents 3-ATA and Compound 6
Procedure: In vitro kinase assay. Seventy-two hours after infection of 1×10^7 Sf9 cells with baculovirus containing a human CDK gene and/or a cyclin gene, cells were lysed in 250 μl of lysis buffer [50 mM HEPES (pH 7.5), 10 mM MgCl2, 1 mM DTT, 5 ig/ml of aprotinin, 5 μg/ml of leupeptin, 0.1 mM NaF, 0.2 mM phenylmethylsulfonyl fluoride (PMSF), and 0.1 mM sodium orthovanadate], centrifuged, and lysates stored at −70° C. Five microliters of CDK:cyclin lysate were mixed with test compounds in 40 μl of kinase buffer (200 mM Tris-HCl, pH 8.0, 100 mM MgCl2, 10 mM EGTA) and incubated at 30° C. for 30 min. About 400 ng of purified GST-Rb fusion protein and 5 μCi of γ-[^32P]ATP were added to the mixture and incubated at 30° C. for 15 min. Reactions were stopped by the addition of 250 μl of IP buffer (50 mM Tris-HCl, pH 8.0; 150 mM NaCl, 0.5% NP-40) and 15 μl glutathione sepharose. After one hour incubation at 4° C., sepharose beads were washed four times with IP buffer, mixed with 18 μl of 2×sample buffer and electrophoresed on an 8% Tris-glycine gel (Novex, San Diego, Calif.) at 125 V for 90 min. Equal recovery of GST-Rb fusion protein was confirmed by Coomassie blue staining prior to autoradiography.
These compounds were assessed for CDK4:cylin D kinase inhibitory activity using baculovirus-expressed human CDK4 and cyclin D1, and a GST-Rb fusion protein as substrate.
CDK2:cyclin E = molecular target: T1, CDK2:cyclin E (Homo sapiens, UniProt P24941); assay: In vitro kinase assay, CDK2:cyclin E; assay type: biochemical; details: for Ratio CDK2/E:CDK4: IC50 ratio, CDK4 as denominator
T1 construct: made in house; host or cells: Sf9 insect cells, baculovirus; unpurified lysate
Excerpt: (§1) Characterization of 3-ATA. To examine the specificity of 3-ATA inhibitory activity for CDK4:cyclin D1 kinase, we performed in vitro kinase assays using baculovirus-expressed human CDC2:cyclin A, CDK2:cyclin A, and CDK2:cyclin E complexes.

CDC2:cyclin A = molecular target: T2, CDC2:cyclin A (Homo sapiens, UniProt P06493); assay: In vitro kinase assay, CDC2:cyclin A; assay type: biochemical; details: for Ratio CDC2A:CDK4: (IC50 CDC2)/(IC50 CDK4)
T2 construct: made in house; host or cells: Sf9 insect cells, baculovirus; unpurified lysate
Excerpt: as §1

CDK4 = molecular target: T3, CDK4 (Homo sapiens, UniProt P11802); assay: CDK4 binding assay (GST-p16 binding to CDK4)
T3 construct: made in house; host or cells: CDK4 and cyclin D1: Sf9 cells, baculovirus, [35S]methionine-labelled cleared lysate; GST-p16: E. coli DH5α
Procedure: CDK4 binding assay. Sf9 cells (1×10^7) were co-infected with baculovirus containing a cloned human CDK4 gene and/or a cyclin D1 gene in 12.5 ml of Grace's insect medium (Paragon, Baltimore, Md.) containing 10% FBS. After 40 h, cells were washed and placed in 5 ml of methionine-free medium containing 200 μCi/ml of [^35S]methionine (1000 Ci/mmole) for 4 h, followed by lysis in 250 μl. Cleared cell lysate (10 μl) was incubated with 400 ng of wildtype or mutant GST-p16 fusion proteins using the same conditions as the in vitro kinase assay. […] The gel was stained using Coomassie blue, dried, and autoradiography was performed. […] To test the effect of compounds on p16 binding to CDK4, 100 μM of each compound was incubated with CDK4:cyclin D1 lysate for 30 min prior to adding GST-p16 fusion protein.

CDK2:cyclin A = molecular target: T4, CDK2:cyclin A (Homo sapiens, UniProt P24941); assay: In vitro kinase assay, CDK2:cyclin A; assay type: biochemical; details: for Ratio CDK2/A:CDK4: IC50 ratio, CDK4 as denominator
T4 construct: made in house; host or cells: Sf9 insect cells, baculovirus; unpurified lysate
Excerpt: as §1

Sequence of CDK4:cyclin D1 (P11802 whole entry): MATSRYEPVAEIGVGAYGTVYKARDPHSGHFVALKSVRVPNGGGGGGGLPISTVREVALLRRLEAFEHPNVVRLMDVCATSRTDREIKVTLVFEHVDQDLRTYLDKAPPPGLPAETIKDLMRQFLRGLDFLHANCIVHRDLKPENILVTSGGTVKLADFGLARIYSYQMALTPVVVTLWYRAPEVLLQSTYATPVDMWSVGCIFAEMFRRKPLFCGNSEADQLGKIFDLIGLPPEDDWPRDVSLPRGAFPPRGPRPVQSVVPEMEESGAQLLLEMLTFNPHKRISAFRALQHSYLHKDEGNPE
Sequence of CDK4:cyclin D1 (P24385 whole entry partner): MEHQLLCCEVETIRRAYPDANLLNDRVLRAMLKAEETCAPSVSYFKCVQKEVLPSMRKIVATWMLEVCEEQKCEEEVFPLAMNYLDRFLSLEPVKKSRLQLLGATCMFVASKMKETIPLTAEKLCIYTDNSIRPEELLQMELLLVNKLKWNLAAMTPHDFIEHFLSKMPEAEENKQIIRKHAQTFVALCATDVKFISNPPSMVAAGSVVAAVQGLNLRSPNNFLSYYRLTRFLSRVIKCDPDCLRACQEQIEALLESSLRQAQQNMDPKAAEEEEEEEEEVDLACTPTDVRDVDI
T3 sequence (P11802 whole entry): as the sequence (P11802 whole entry) above

Compound: CCC/C=C/C=C/C(=O)O[C@H]1/C(=C/C(=O)OC)C[C@H]2C[C@H]([C@@H](C)O)OC(=O)C[C@H](O)C[C@@H]3C[C@H](OC(C)=O)C(C)(C)[C@](O)(C[C@@H]4C/C(=C/C(=O)OC)C[C@H](/C=C/C(C)(C)[C@]1(O)O2)O4)O3 [Bryostatin 1, reference compound]
- Inhibition of GST-Rb phosphorylation by CDK4:cyclin D1 (CDK4:cyclin D1; concentrations up to 100 μM): no inhibitory activity

Compound: O=C(CNc1ccc2c(=S)c3ccccc3[nH]c2c1)Nc1ccccc1-c1ccccc1NC(=O)CNc1ccc2c(=S)c3ccccc3[nH]c2c1 [Compound 5, 2,2′-Biphenyldiamine, bis[N,N′-[3-(amidonmethylamino)-10H-acridine-9-thione]]]
- IC50 (CDK2:cyclin E): > 100 µM
- Ratio CDK2/E:CDK4 (CDK2:cyclin E): >91
- IC50 (CDC2:cyclin A): 70 µM
- IC50 (CDK2:cyclin A): > 100 µM
- Ratio CDK2/A:CDK4 (CDK2:cyclin A): >91
- IC50 (CDK4:cyclin D1): 1.1 µM
- CDK4 kinase inhibitory potency compared with parent compounds (CDK4:cyclin D1): more potent CDK4 kinase inhibitors than the parent compounds

Compound: C[C@@H]1[C@]2(O[C@H]3C=C4[C@@H]5CC[C@H]6Cc7nc8c(nc7C[C@]6(C)[C@H]5C[C@@H](O)[C@]4(C)[C@]31O)C[C@@H]1CC[C@H]3C4=CC[C@@H]5[C@H](C)[C@@]6(OC[C@]45C(=O)C[C@@H]3[C@@]1(C)C8)OC(C)(C)C[C@H]6O)O[C@](C)(CO)C[C@H]2O [cephalostatin 1, reference compound]
- IC50 (CDK4:cyclin D1; read-out: IC50 value CDK4/D1): 20 µM

The next lines start with results.

- IC50 (CDK2:cyclin E): 80 µM
- Ratio CDK2/E:CDK4 (CDK2:cyclin E): 11.8
- Ratio CDK2/E:CDK4 (CDK2:cyclin E; listed as 3-ATA): at least nine-fold higher
- IC50 (CDC2:cyclin A): 60 µM
- Ratio CDC2A:CDK4 (CDC2:cyclin A): 8.8
- Ratio CDC2A:CDK4 (CDC2:cyclin A; listed as 3-ATA): at least nine-fold higher
- Decrease of binding of CDK4 to normal p16 (CDK4; 100 μM compound): 70%
- IC50 (CDK2:cyclin A): > 100 µM
- Ratio CDK2/A:CDK4 (CDK2:cyclin A): >14.7
- Ratio CDK2/A:CDK4 (CDK2:cyclin A; listed as 3-ATA): at least nine-fold higher
- IC50 (CDK4:cyclin D1): 6.8 µM
- Effect of exogenous ATP on inhibitory activity in CDK4 kinase assay (CDK4:cyclin D1; exogenous ATP 0 to 600 μM): did not alter the inhibitory activity
Compound: Nc1ccc2c(=S)c3ccccc3[nH]c2c1 [Compound 3, 3-Amino-10H-acridine-9-thione]

- IC50 (CDK2:cyclin E): > 100 µM
- Ratio CDK2/E:CDK4 (CDK2:cyclin E): >45
- IC50 (CDC2:cyclin A): > 100 µM
- Ratio CDC2A:CDK4 (CDC2:cyclin A): >45
- Inhibition of p16INK4A binding to CDK4 (CDK4; 100 μM of each compound): did not inhibit
- IC50 (CDK2:cyclin A): > 100 µM
- Ratio CDK2/A:CDK4 (CDK2:cyclin A): >45
- IC50 (CDK4:cyclin D1): 2.2 µM
Compound: COc1ccc(OC)c2c(=S)c3ccccc3[nH]c12 [Compound 4, 1,4-Dimethoxy-10H-acridine-9-thione]
- CDK2 kinase inhibitory activity (CDK2:cyclin E) (CDK2:cyclin E; concentrations up to 100 μM): no CDC2 or CDK2 kinase inhibitory activity
- CDC2 kinase inhibitory activity (CDC2:cyclin A; concentrations up to 100 μM): no CDC2 or CDK2 kinase inhibitory activity
- CDK2 kinase inhibitory activity (CDK2:cyclin A) (CDK2:cyclin A; concentrations up to 100 μM): no CDC2 or CDK2 kinase inhibitory activity
- CDK4 kinase inhibitory potency compared with parent compounds (CDK4:cyclin D1): more potent CDK4 kinase inhibitors than the parent compounds

- IC50 (CDK2:cyclin E): > 100 µM
- IC50 (CDC2:cyclin A): > 100 µM
- IC50 (CDK2:cyclin A): > 100 µM
- IC50 (CDK4:cyclin D1): 5 µM
Compound: O=S1(=O)NN=C(NCc2ccc(F)cc2)c2ccccc21 [Compound 6, 4-(4-Fluorobenzylamino)-1,2,3-benzothiadiazine-1,1-dioxide]

- IC50 (CDK4:cyclin D1; read-out: IC50 value CDK4/D1): 17 µM
Compound: O=S1(=O)NNC(=NCc2ccc(Cl)c(Cl)c2)c2ccccc21 [NSC 645788]
